Experimental data from US5830864A, “Antiherpes peptide derivatives having a ureido n-terminus” (priority 1995, dated 1998).
*1 amine or outer side, *2 acyl side, *3 side chain or, on linkers, in order; H or OH if unused. Where a SMILES comes first, the peptide text is derived from it. [ ]: non-standard residue; d: D form. The star is where a group is joined. Gly(1-adamantyl) = N[C@H](C(=O)O)C12CC3CC(CC(C3)C1)C2; Asp(3,3-(CH2)4) = N[C@H](C(=O)O)C1(C(=O)O)CCCC1; tBuAla = CC(C)(C)C[C@H](N)C(=O)O; Tle = CC(C)(C)[C@H](N)C(=O)O; NH(3-pentyl) = CCC(CC)N*; Pyrrolidide = C1CCN(*)C1; X2 = CC(C)(C)CC(C)(C)N*; CO = O=C([*:1])[*:2]; X1 = CCCC1(N*)CCCC1; X3 = CCCC(C)(C)N*; X4 = CCCC(CCC)N*

What follows are compounds tested against HSV-1 ribonucleotide reductase (Human herpesvirus 1, UniProt P08543) (assay: biochemical).
Sequence of HSV-1 ribonucleotide reductase (P08543 whole entry): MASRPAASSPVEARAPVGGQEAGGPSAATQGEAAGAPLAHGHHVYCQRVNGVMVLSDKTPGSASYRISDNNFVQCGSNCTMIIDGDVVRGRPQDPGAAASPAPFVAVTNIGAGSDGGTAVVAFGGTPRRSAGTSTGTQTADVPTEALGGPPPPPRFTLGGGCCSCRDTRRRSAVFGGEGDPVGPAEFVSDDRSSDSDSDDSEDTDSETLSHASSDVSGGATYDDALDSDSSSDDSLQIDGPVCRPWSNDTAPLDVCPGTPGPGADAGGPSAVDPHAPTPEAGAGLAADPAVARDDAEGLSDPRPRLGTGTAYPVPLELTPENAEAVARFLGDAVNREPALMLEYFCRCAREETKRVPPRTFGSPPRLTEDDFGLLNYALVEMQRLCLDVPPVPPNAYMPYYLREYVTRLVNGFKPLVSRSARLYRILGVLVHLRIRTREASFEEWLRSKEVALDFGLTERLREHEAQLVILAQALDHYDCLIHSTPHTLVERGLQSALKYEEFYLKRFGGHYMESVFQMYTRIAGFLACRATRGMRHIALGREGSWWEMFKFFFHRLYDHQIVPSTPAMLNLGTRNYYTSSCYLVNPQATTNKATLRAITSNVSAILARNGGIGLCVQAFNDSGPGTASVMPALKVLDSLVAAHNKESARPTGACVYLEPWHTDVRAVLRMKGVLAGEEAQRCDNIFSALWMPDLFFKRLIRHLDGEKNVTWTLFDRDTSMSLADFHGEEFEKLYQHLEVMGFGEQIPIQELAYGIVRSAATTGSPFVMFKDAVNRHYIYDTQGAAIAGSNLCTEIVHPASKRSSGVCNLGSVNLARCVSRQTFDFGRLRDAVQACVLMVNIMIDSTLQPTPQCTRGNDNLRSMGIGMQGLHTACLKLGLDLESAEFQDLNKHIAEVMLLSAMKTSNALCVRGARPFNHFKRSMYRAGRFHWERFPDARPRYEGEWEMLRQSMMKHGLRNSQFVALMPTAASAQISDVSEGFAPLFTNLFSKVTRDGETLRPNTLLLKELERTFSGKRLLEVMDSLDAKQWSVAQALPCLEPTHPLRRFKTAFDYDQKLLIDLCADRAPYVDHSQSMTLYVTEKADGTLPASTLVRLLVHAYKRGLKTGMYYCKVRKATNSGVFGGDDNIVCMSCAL
From the text: HSV-1 ribonucleotide reductase (partially purified) was obtained from quiescent BHK-21/C13 cells infected with strain F HSV-1 virus at 10 plaque forming units/cell as described by E. A. Cohen et al., J. Gen.
The number of units of the enzyme preparation used in each assay was constant, based on the specific activity of the enzyme preparation.

Structure (SMILES)	IC50 [nM]
CCCC1(NC(=O)N[C@H](C(=O)N[C@@H](CC(=O)N2CCCC2)C(=O)N[C@H](C(=O)N[C@@H](CC(C)(C)C)C(=O)OCC)C2(C(=O)O)CCCC2)C(C)(C)C)CCCC1 [(1-propylcyclopentyl)-NHC(O)-Tbg-Asp(pyrrolidino)-Asp(cyPn)-γMeLeu-OEt] ({X1-CO}-[Tle]D(Pyrrolidide)[Asp(3,3-(CH2)4)][tBuAla]-OEt)	200
CCC(CC)NC(=O)N[C@H](C(=O)N[C@@H](CC(=O)N1CCCC1)C(=O)N[C@H](C(=O)N[C@@H](CC(C)C)C(=O)O)[C@H](C(=O)O)C(C)C)C(C)(C)C [Et2 CHNHC(O)-Tbg-Asp(pyrrolidino)-Asp{(R)-iPr}-Leu-OH]	570
CC(C)(C)C[C@@H](CO)NC(=O)[C@@H](NC(=O)[C@H](CC(=O)N1CCCC1)NC(=O)[C@@H](NC(=O)Nc1ccccc1)C(C)(C)C)C1(C(=O)O)CCCC1 [PhNHC(O)-Tbg-Asp(pyrrolidino)-Asp(cyPn)-γMeLeucinol]	710
CCC(CC)NC(=O)N[C@H](C(=O)N[C@@H](CC(=O)N1CCCC1)C(=O)N[C@H](C(=O)N[C@H](CO)CC(C)(C)C)C1(C(=O)O)CCCC1)C(C)(C)C [Et2 CHNHC(O)-Tbg-Asp(pyrrolidino)-Asp(cyPn)-γMeLeucinol]	98
CCCC(C)(C)NC(=O)N[C@H](C(=O)N[C@@H](CC(=O)N1CCCC1)C(=O)N[C@H](C(=O)N[C@@H](CC(C)(C)C)C(=O)O)C1(C(=O)O)CCCC1)C(C)(C)C [PrMe2 CNHC(O)-Tbg-Asp(pyrrolidino)-Asp(cyPn)-γMeLeu-OH] ({X3-CO}-[Tle]D(Pyrrolidide)[Asp(3,3-(CH2)4)][tBuAla]-OH)	100
CCC(CC)NC(=O)N[C@H](C(=O)N[C@@H](CC(=O)N1CCCC1)C(=O)N[C@H](C(=O)NCC(C)C)C1(C(=O)O)CCCC1)C(C)(C)C [Et2 CHNHC(O)-Tbg-Asp(pyrrolidino)-Asp(cyPn)-NHCH2 CHMe2]	600
CCC(CC)NC(=O)N[C@H](C(=O)N[C@@H](CC(=O)N1CCCC1)C(=O)N[C@H](C(=O)N[C@@H](CC(C)(C)C)C(=O)O)C1(C(=O)O)CCCC1)C(C)(C)C [Et2 CHNHC(O)-Tbg-Asp(pyrrolidino)-Asp(cyPn)-γMeLeu-OH] ({NH(3-pentyl)-CO}-[Tle]D(Pyrrolidide)[Asp(3,3-(CH2)4)][tBuAla]-OH)	100
CCCC(CCC)NC(=O)N[C@H](C(=O)N[C@@H](CC(=O)C1CCCC1)C(=O)N[C@H](C(=O)NCC(C)(C)C)C1(C(=O)O)CCCC1)C(C)(C)C [Pr2 CHNHC(O)-Tbg-NH-(S)-CH(2-cyclopentyl-2-oxoethyl)C(O)-Asp(cyPn)-NHCH2 CMe3]	200
CCCC(CCC)NC(=O)N[C@H](C(=O)N[C@@H](CC(=O)N1CCCC1)C(=O)N[C@H](C(=O)N[C@H](C)C(C)(C)C)C1(C(=O)O)CCCC1)C(C)(C)C [Pr2 CHNHC(O)-Tbg-Asp(pyrrolidino)-Asp(cyPn)-NHCH(CH3)CMe3]	180
CCCC(CCC)NC(=O)N[C@H](C(=O)N[C@@H](CC(=O)N1CCCC1)C(=O)N[C@H](C(=O)N[C@H](CO)CC(C)(C)C)C1(C(=O)O)CCCC1)C(C)(C)C(=O)O [Pr2 CHNHC(O)-Asp(diMe)-Asp(pyrrolidino)-Asp(cyPn)-γMeLeucinol]	200
CC(C)NC(=O)N[C@H](C(=O)N[C@@H](CC(=O)N1CCCC1)C(=O)N[C@H](C(=O)N[C@H](CO)CC(C)(C)C)C1(C(=O)O)CCCC1)C(C)(C)C [Me2 CHNHC(O)-Tbg-Asp(pyrrolidino)-Asp(cyPn)-γMeLeucinol]	70
CCCC(CCC)NC(=O)N[C@H](C(=O)N[C@@H](CC(=O)N1CCCC1)C(=O)N[C@H](C(=O)NCC(C)(C)C)C1(C(=O)O)CCCC1)C(C)(C)C [Pr2 CHNHC(O)-Tbg-Asp(pyrrolidino)-Asp(cyPn)-NHCH2 CMe3]	180
CCC(CC)NC(=O)N[C@H](C(=O)N[C@@H](CC(=O)N1CCCC1)C(=O)N[C@H](C(=O)NCC(C)(C)C)C1(C(=O)O)CCCC1)C(C)(C)C [Et2 CHNHC(O)-Tbg-Asp(pyrrolidino)-Asp(cyPn)-NHCH2 CMe3]	130
CCC(CC)NC(=O)N[C@H](C(=O)N[C@@H](CC(=O)N1CCCC1)C(=O)N[C@H](C(=O)N[C@@H](CC(C)(C)C)C(=O)O)C1(C(=O)O)CCCC1)C12CC3CC(CC(C3)C1)C2 [Et2 CHNHC(O)--NH-(S)-CH(adamantyl)-C(O)-Asp(pyrrolidino)-Asp(cyPn)-γMeLeu-OH] ({NH(3-pentyl)-CO}-[Gly(1-adamantyl)]D(Pyrrolidide)[Asp(3,3-(CH2)4)][tBuAla]-OH)	82
CCCC(CCC)NC(=O)N[C@H](C(=O)N[C@@H](CC(=O)C(CC)CC)C(=O)N[C@H](C(=O)NCC(C)(C)C)C1(C(=O)O)CCCC1)C(C)(C)C [Pr2 CHNHC(O)-Tbg-NHCH(3-ethyl-2-oxopentyl)CO-Asp(cyPn)-NHCH2 CMe3]	400
CC(C)(C)C[C@@H](CO)NC(=O)[C@@H](NC(=O)[C@H](CC(=O)N1CCCC1)NC(=O)[C@@H](NC(=O)NC(C)(C)C)C(C)(C)C)C1(C(=O)O)CCCC1 [Me3 CNHC(O)-Tbg-Asp(pyrrolidino)-Asp(cyPn)-γMeLeucinol]	100

Structure (SMILES)	IC50 [nM]
CC(C)(C)C[C@@H](CO)NC(=O)[C@@H](NC(=O)[C@H](CC(=O)N1CCCC1)NC(=O)[C@@H](NC(=O)NCc1ccccc1)C(C)(C)C)C1(C(=O)O)CCCC1 [BzlNHC(O)-Tbg-Asp(pyrrolidino)-Asp(cyPn)-γMeLeucinol]	410
CCCC(CCC)NC(=O)N[C@H](C(=O)N[C@@H](CC(=O)N1CCCC1)C(=O)N[C@H](C(=O)N[C@H](CO)CC(C)(C)C)C1(C(=O)O)CCCC1)C(C)(C)C [Title Compound of Example 8, Pr2 CHNHC(O)-Tbg-Asp(pyrrolidino)-Asp(cyPn)-γMeLeucinol]	80
CC(C)(C)C[C@H](NC(=O)[C@@H](NC(=O)[C@H](CC(=O)N1CCCC1)NC(=O)[C@@H](NC(=O)NC(C)(C)CC(C)(C)C)C(C)(C)C)C1(C(=O)O)CCCC1)C(=O)O [Me3 CCH2 CMe2 NHC(O)-Tbg-Asp(pyrrolidino)-Asp(cyPn)-γMeLeu-OH] ({X2-CO}-[Tle]D(Pyrrolidide)[Asp(3,3-(CH2)4)][tBuAla]-OH)	180
CCC(CC)NC(=O)N[C@H](C(=O)N[C@@H](CC(=O)N1CCCC1)C(=O)N[C@H](C(=O)N[C@H](CO)CC(C)(C)C)[C@H](C(=O)O)C(C)C)C(C)(C)C [Et2 CHNHC(O)-Tbg-Asp(pyrrolidino)-Asp{(R)-iPr}-γMeLeucinol]	100
CCCC(CCC)NC(=O)N[C@H](C(=O)N[C@@H](CC(=O)N1CCCC1)C(=O)N[C@H](C(=O)NCC(C)(C)CC)C1(C(=O)O)CCCC1)C(C)(C)C [Pr2 CHNHC(O)-Tbg-Asp(pyrrolidino)-Asp(cyPn)-NHCH2 CMe2 Et]	240
CNC(=O)N[C@H](C(=O)N[C@@H](CC(=O)N1CCCC1)C(=O)N[C@H](C(=O)N[C@H](CO)CC(C)(C)C)C1(C(=O)O)CCCC1)C(C)(C)C [MeNHC(O)-Tbg-Asp(pyrrolidino)-Asp(cyPn)-γMeLeucinol]	890
CCCC(CC)(CCC)NC(=O)N[C@H](C(=O)N[C@@H](CC(=O)N1CCCC1)C(=O)N[C@H](C(=O)N[C@H](CC)C(C)(C)C)C1(C(=O)O)CCCC1)C(C)(C)C [EtPr2 CNHC(O)-Tbg-Asp(pyrrolidino)Asp(cyPn)-NH-(R)-CH(Et)CMe3]	140
CCCC(CCC)NC(=O)N[C@H](C(=O)N[C@@H](CC(=O)C1CCCCC1)C(=O)N[C@H](C(=O)NCC(C)(C)C)C1(C(=O)O)CCCC1)C(C)(C)C [Pr2 CHNHC(O)-Tbg-NHCH(2-cyclohexyl-2-oxoethyl)C(O)-Asp(cyPn)-NHCH2 CMe3]	140
CCCC1(NC(=O)N[C@H](C(=O)N[C@@H](CC(=O)N2CCCC2)C(=O)N[C@H](C(=O)N[C@@H](CC(C)(C)C)C(=O)O)C2(C(=O)O)CCCC2)C(C)(C)C)CCCC1 [(1-propylcyclopentyl)-NHC(O)-Tbg-Asp(pyrrolidino)-Asp(cyPn)-γMeLeu-OH] ({X1-CO}-[Tle]D(Pyrrolidide)[Asp(3,3-(CH2)4)][tBuAla]-OH)	130
CCC(CC)NC(=O)N[C@H](C(=O)N[C@@H](CC(=O)N1CCCC1)C(=O)N[C@H](C(=O)N[C@H](CO)CC(C)(C)C)C1(C(=O)O)CCCC1)C12CC3CC(CC(C3)C1)C2 [Et2 CHNHC(O)--NH-(S)-CH(adamantyl)-C(O)-Asp(pyrrolidino)-Asp(cyPn)-γMeLeucinol]	160
CCCC(CCC)NC(=O)N[C@H](C(=O)N[C@@H](CC(=O)N1CCCC1)C(=O)N[C@H](C(=O)N[C@@H](CC(C)(C)C)C(=O)O)C1(C(=O)O)CCCC1)C(C)(C)C [Pr2 CHNHC(O)-Tbg-Asp(pyrrolidino)-Asp(cyPn)-γMeLeu-OH] ({X4-CO}-[Tle]D(Pyrrolidide)[Asp(3,3-(CH2)4)][tBuAla]-OH)	96
CCCC(C)(CCC)NC(=O)N[C@H](C(=O)N[C@@H](CC(=O)N1CCCC1)C(=O)N[C@H](C(=O)NCC(C)(C)C)C1(C(=O)O)CCCC1)C(C)(C)C [MePr2 CNHC(O)-Tbg-Asp(pyrrolidino)-Asp(cyPn)-NHCH2 CMe3]	160
CCC(CC)NC(=O)N[C@H](C(=O)N[C@@H](CC(=O)N1CCCC1)C(=O)N[C@H](C(=O)NCCC(C)(C)C)C1(C(=O)O)CCCC1)C(C)(C)C [Et2 CHNHC(O)-Tbg-Asp(pyrrolidino)-Asp(cyPn)-NHCH2 CH2 CMe3]	200
CCCC(CCC)NC(=O)N[C@H](C(=O)N[C@@H](CC(=O)C1CCC1)C(=O)N[C@H](C(=O)NCC(C)(C)C)C1(C(=O)O)CCCC1)C(C)(C)C [Pr2 CHNHC(O)-Tbg-NH-(S)-CH(2-cyclobutyl-2-oxoethyl)C(O)-Asp(cyPn)-NHCH2 CMe3]	250
CCC(CC)NC(=O)N[C@H](C(=O)N[C@@H](CC(=O)N1CCCC1)C(=O)N[C@H](C(=O)N[C@@H](CC(C)(C)C)C(=O)O)[C@H](C(=O)O)C(C)C)C(C)(C)C [Et2 CHNHC(O)-Tbg-Asp(pyrrolidino)-Asp{(R)-iPr}-γMeLeu-OH]	72
